# Like-named read-outs stand apart in the source and are kept apart here.
# Tests used:
# GlyT2 = target: T1, GlyT2 (Rattus norvegicus, UniProt P58295); assay: FLIPR membrane potential assay for GlyT2 target activity (T-rex-293-rGlyT2 cells); format: cell-based; settings: for inhibition at 10 µM: read-out: GlyT2 % inhibition
# T1 construct: expressed in transfected cells
# T1 sequence (P58295 1-799): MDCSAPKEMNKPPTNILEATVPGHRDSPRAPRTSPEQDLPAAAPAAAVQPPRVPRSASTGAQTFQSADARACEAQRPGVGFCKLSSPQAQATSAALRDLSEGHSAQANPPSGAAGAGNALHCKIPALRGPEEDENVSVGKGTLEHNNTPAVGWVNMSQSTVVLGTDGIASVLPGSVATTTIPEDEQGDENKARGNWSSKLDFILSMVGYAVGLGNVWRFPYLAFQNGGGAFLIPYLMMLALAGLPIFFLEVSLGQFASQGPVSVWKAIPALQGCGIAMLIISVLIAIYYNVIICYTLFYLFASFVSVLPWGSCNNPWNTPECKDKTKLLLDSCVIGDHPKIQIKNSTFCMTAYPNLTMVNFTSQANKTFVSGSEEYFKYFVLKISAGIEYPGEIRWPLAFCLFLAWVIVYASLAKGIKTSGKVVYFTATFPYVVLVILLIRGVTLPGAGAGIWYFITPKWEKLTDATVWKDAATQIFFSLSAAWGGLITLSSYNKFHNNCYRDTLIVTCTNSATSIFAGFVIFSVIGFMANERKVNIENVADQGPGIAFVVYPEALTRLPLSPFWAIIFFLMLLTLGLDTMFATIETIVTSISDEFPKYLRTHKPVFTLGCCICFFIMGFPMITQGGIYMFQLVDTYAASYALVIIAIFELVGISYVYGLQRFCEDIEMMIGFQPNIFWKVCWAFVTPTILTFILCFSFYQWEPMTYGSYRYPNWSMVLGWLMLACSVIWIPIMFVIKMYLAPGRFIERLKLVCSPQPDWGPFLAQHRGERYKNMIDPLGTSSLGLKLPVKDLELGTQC
# Description: GlyT2 (Glycine transporter type 2) is an electrogenic carrier associated with Na^+/Cl^− ion transportation, primarily distributed around the spinal cord part, and has an important role in the transfer of a pain signal in the spinal cord.
# In order to identify the fact that the novel compound of the present invention has GlyT2 targeting activity, a membrane potential assay was performed. FLIPR Membrane Potential Assay is used to measure ion channel modulation caused by an increase or decrease in fluorescence signal due to variations of cellular membrane potential.
# First, pcDNA4/TO vector encoding GlyT2 of the rat in HEK293 cell was transfected to prepare a stable recombinant cell line, i.e., T-rex-293-rGlyT2. A […] (Greiner #655090) coated with poly-D-lysine was prepared, and the above recombinant cells (T-rex-293-rGlyT2) were seeded at 3.2×10^4/well therein using a medium containing 15 μg/ml of tetracycline. After this, incubation was conducted at 37° C. for 48 hours under 5% CO2 conditions to express GlyT2. 10 ml of assay buffer (1×HBSS, 20 mM HEPES, pH 7.4) was added to a blue dye solution and sufficiently dissolved therein to prepare a membrane potential dye solution. After removing the medium from the well showing GlyT2 expression, the membrane potential dye solution was added to the well in an amount of 100 μl/well and incubated for 20 minutes.
# According to the FLIPR Membrane Potential Assay kit's protocol, SoftMax Pro Software of FlexStation 3 software (Molecular Devices, US) was set up. An extent of GlyT2 expression was determined such that the extent of cellular membrane depolarization relative to an administered amount of glycine during glycine treatment is indicated in relative fluorescence units (RFU), and RFU (Max-Min) is calculated by subtracting the minimum value from the maximum value of RFU. After firstly treating 10 uM of the novel compound according to the present invention, glycine was treated and RFU (Max-Min) for glycine administration was determined. Then, with the determined result, the extent of depolarization inhibition (% inhibition) was assessed for each compound, compared to a positive control.
# The positive control used herein was ORG25543 (500 nM) having strong inhibitory efficacy specific to GlyT2.
# For GlyT2 inhibitory efficacy, the efficacy of the compound ORG25543 (500 nM) was defined as 100%. Similarly, for 5HT2A inhibitory efficacy, the efficacy of MDL11939 (100 nM) was defined as 100%. Therefore, the target inhibitory efficacy of each compound was indicated in a relative value compared to the above defined efficacy.
# 5HT2A = 5HT2A (Homo sapiens, UniProt P28223); assay: FLIPR calcium assay for 5HT2A target activity (transfected HEK293 cells); format: cell-based
# 5HT2A, sequence (P28223 whole entry, species assumed): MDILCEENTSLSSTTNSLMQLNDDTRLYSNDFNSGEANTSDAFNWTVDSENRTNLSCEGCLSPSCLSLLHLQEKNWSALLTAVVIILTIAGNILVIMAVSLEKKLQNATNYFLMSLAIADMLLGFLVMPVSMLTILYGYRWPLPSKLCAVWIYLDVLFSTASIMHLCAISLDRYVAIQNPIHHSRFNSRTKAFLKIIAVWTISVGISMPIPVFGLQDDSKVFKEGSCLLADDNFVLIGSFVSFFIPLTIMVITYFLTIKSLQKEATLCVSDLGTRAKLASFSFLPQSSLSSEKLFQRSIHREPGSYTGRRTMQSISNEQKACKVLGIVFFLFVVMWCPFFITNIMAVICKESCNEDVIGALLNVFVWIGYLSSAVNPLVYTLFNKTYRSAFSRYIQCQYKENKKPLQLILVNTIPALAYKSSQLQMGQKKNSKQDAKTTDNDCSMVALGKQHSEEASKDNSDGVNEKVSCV
# [1] = tested on: neuropathic pain model (Chung model); assay: Neuropathic pain model (Chung model, SNL), paw withdrawal threshold; format: in vivo, rat; settings: subcutaneous 50 mg/kg or oral 100 mg/kg; gabapentin 55 to 70 mg/kg intraperitoneal; FIGS. 1 to 22
# [2] = 10 uM compound, then glycine, relative to ORG25543 (500 nM) defined as 100%
# [3] = HEK293, 10 uM compound, then serotonin, relative to MDL11939 (100 nM) defined as 100%, read-out: 5HT2A % inhibition
# [4] = HEK293, read-out: 5HT2A % inhibition
Compound,inhibition at 10 µM (GlyT2; [2]),inhibition at 10 µM (5HT2A; [3]),inhibition at 10 µM (GlyT2),inhibition at 10 µM (5HT2A; [4]),further results
Cc1cc(C(=O)NC(CN2CCOCC2)c2ccccc2)cc(C)c1OCc1ccccc1 (centres unmarked) [VVZ-080],40.6%,113%,–,–,–
O=C(NCC(c1ccccc1)N1CCOCC1)c1ccc(OCc2ccccc2)cc1 (centres unmarked) [VVZ-081],–,–,45.3%,71.5%,–
COc1cc(C(=O)N[C@H]2CN3CCC2CC3)cc(OC)c1OCc1ccccc1 [VVZ-003],78.2%,31.6%,–,–,–
COc1cc(C(=O)NCC2CCCCN2C)cc(OC)c1OCc1ccccc1 (centres unmarked) [VVZ-009],117%,90.4%,–,–,–
COc1cc(C(=O)NCCN2CCOCC2)cc(OC)c1OCc1ccccc1 [VVZ-006],48.9%,–,–,89.8%,–
CCCCOc1c(OC)cc(C(=O)NCC2(N3CCN(C)CC3)CCCCC2)cc1OC [VVZ-032],–,–,–,–,analgesic efficacy compared to GBP positive control [1]: analgesic efficacy substantially equal to 0 °C superior to GBP
CCCCOc1c(C)cc(C(=O)NCC2(O)CCN(C)CC2)cc1C [VVZ-053],59.6%,31.4%,–,–,–
CN1CCN(C2(CNC(=O)c3ccc(OCc4ccccc4)cc3)CCOCC2)CC1 [VVZ-072],–,–,59.1%,101%,–
O=C(NCC1(N2CCOCC2)CCOCC1)c1ccc(OCc2ccccc2)cc1 [VVZ-076],–,–,50.6%,113%,–
COc1cc(C(=O)NC2CCN(Cc3ccccc3)C2)cc(OC)c1OCc1ccccc1 (centres unmarked) [VVZ-013],72.9%,48.5%,–,–,–
CCCCOc1c(OC)cc(C(=O)NCC2(N(C)CC)CCOCC2)cc1OC [VVZ-041],79.2%,105%,–,–,analgesic efficacy compared to GBP positive control [1]: analgesic efficacy substantially equal to 0 °C superior to GBP
COc1cc(C(=O)NCC2(N(C)C)CCOCC2)cc(OC)c1OCc1ccccc1 [VVZ-036],–,–,103%,66.1%,–
CCCCOc1c(OC)cc(C(=O)NCC(c2ccccc2)N(C)C)cc1OC (centres unmarked) [VVZ-033],–,–,105%,97.1%,–
CCN(C)C1(CNC(=O)c2cc(OC)c(OCc3ccccc3)c(OC)c2)CC=C(F)CC1 (centres unmarked) [VVZ-050],117%,108%,–,–,–
COc1cc(C(=O)NCC2(N3CCOCC3)CCOCC2)cc(OC)c1OCc1ccccc1 [VVZ-074],–,–,73.5%,155%,–
COc1cc(C(=O)NCC(=O)N2CCC(C)CC2)cc(OC)c1OCc1ccccc1 [VVZ-040],–,–,–,–,analgesic efficacy compared to GBP positive control [1]: analgesic efficacy substantially equal to 0 °C superior to GBP
CN(C)C(CNC(=O)c1cccc(C(F)(F)F)c1)c1ccccc1 (centres unmarked) [VVZ-078],–,–,–,–,analgesic efficacy compared to GBP positive control [1]: analgesic efficacy substantially equal to 0 °C superior to GBP
CN(C)C1(CNC(=O)c2ccc(OCc3ccccc3)cc2)CCOCC1 [VVZ-065],–,–,–,–,GlyT2 % inhibition (GlyT2): 105.1%; 5HT2A % inhibition (5HT2A): 107.8%
CCCCOc1c(C)cc(C(=O)NCC(c2ccccc2)N(C)C)cc1C (centres unmarked) [VVZ-057],–,–,101%,65.7%,–
CCCCOc1c(OC)cc(C(=O)NC[C@H]2CCCN2CC)cc1OC [VVZ-029],46%,71.3%,–,–,–
COc1ccc(C(CNC(=O)c2cc(OC)c(OCc3ccccc3)c(OC)c2)N2CCCC2)cc1 (centres unmarked) [VVZ-015],108%,57%,–,–,–
Cc1cc(C(=O)NCC(c2ccccc2)N(C)C)cc(C)c1OCc1ccccc1 (centres unmarked) [VVZ-046],–,–,113%,54.2%,–
COc1cc(C(=O)N[C@@H]2CCN(Cc3ccccc3)C2)cc(OC)c1OCc1ccccc1 [VVZ-011],88.8%,56.2%,–,–,–

Compound,inhibition at 10 µM (GlyT2; [2]),inhibition at 10 µM (5HT2A; [3]),inhibition at 10 µM (GlyT2),inhibition at 10 µM (5HT2A; [4]),further results
CN(C)C1(CNC(=O)c2cccc(C(F)(F)F)c2)CCC(F)(F)CC1 [VVZ-062],–,–,–,–,analgesic efficacy compared to GBP positive control [1]: analgesic efficacy substantially equal to 0 °C superior to GBP
COc1cc(C(=O)NCC2(N(C)C)CCC(F)(F)CC2)cc(OC)c1OCc1ccccc1 [VVZ-016],–,–,109%,97.5%,–
COc1cc(C(=O)NCC(c2ccccc2)N2CCOCC2)cc(OC)c1OCc1ccccc1 (centres unmarked) [VVZ-018],–,–,76.8%,70.7%,–
COc1cc(C(=O)NCC(c2ccccc2)N(C)C)cc(OC)c1OCc1ccccc1 (centres unmarked) [VVZ-020],–,–,103%,94.1%,–
CCN1CCC[C@@H]1CNC(=O)c1cc(OC)c(OCc2ccccc2)c(OC)c1 [VVZ-012],118%,76.1%,–,–,–
CCCCOc1ccc(C(=O)NCC(c2ccccc2)N(C)C)cc1 (centres unmarked) [VVZ-052],–,–,76.6%,103%,–
Cc1cc(C(=O)NCC2(N(C)C)CCC(F)(F)CC2)cc(C)c1OCc1ccccc1 [VVZ-058],–,–,102%,134%,–
COc1cc(C(=O)NCC(c2ccccc2)N2CCCC2)cc(OC)c1OCc1ccccc1 (centres unmarked) [VVZ-035],84.8%,101%,–,–,–
COc1cc(C(=O)NCC2(N(C)C)CCCCC2)cc(OC)c1OCc1ccccc1 [VVZ-037],–,–,100%,99.8%,–
COc1cc(C(=O)NCC(c2ccccc2)N(C)C)cc(OC)c1OCc1ccccc1 (centres unmarked) [VVZ-010],–,–,–,–,GlyT2 % inhibition (GlyT2): 102.5%; 5HT2A % inhibition (5HT2A): 108.1%
Cc1cc(C(=O)NCC2(N3CCN(C)CC3)CCCCC2)cc(C)c1OCc1ccccc1 [VVZ-063],–,–,112%,76.7%,–
COc1cc(C(=O)NCC2(NCc3ccccc3)CCOCC2)cc(OC)c1OCc1ccccc1 [VVZ-084],79%,94.4%,–,–,–
COc1cc(C(=O)NCC2(N3CCN(C)CC3)CCOCC2)cc(OC)c1OCc1ccccc1 [VVZ-071],–,–,78.8%,60.8%,–
COc1cc(N)c(Cl)cc1C(=O)N[C@H]1CN2CCC1CC2 [VVZ-047],23.4%,78.8%,–,–,–
CCN1CCC[C@H]1CNC(=O)c1cc(OC)c(OCc2ccccc2)c(OC)c1 [VVZ-014],75%,93.6%,–,–,–
COc1cc(C(=O)NCC2(N(C)C)CC=C(F)CC2)cc(OC)c1OCc1ccccc1 (centres unmarked) [VVZ-028],87.9%,–,–,93.9%,–
O=C(c1cccc(C(F)(F)F)c1)N1CCN(CCc2ccccc2)CC1 [VVZ-042],34.4%,107%,–,–,–
COc1cc(N)c(Cl)cc1C(=O)NCC1(O)CCN(C)CC1 [VVZ-055],55.3%,146%,–,–,–
CN1CCN(C2(CNC(=O)c3ccc(OCc4ccccc4)cc3)CCCCC2)CC1 [VVZ-069],–,–,83.9%,150%,–
Cc1cc(C(=O)NCC2(O)CCN(C)CC2)cc(C)c1OCc1ccccc1 [VVZ-054],82.9%,57.1%,–,–,–
CCCCOc1c(OC)cc(C(=O)Nc2nnc(C)s2)cc1OC [VVZ-025],–,–,–,–,analgesic efficacy compared to GBP positive control [1]: analgesic efficacy substantially equal to 0 °C superior to GBP
CN(C)C(CNC(=O)c1ccc(OCc2ccccc2)cc1)c1ccccc1 (centres unmarked) [VVZ-051],–,–,110%,95%,–

# — US9359346B2, “Benzamide derivative and use thereof” (VIVOZON, INC., priority 2011, dated 2016)
